Data: US11207369B2, “Compositions and methods for modulating ciliogenesis” (UNIVERSITY OF PITTSBURGH-OF THE COMMONWEALTH SYSTEM OF …, priority 2017, dated 2021)
Entries after “also recorded” stand apart in the source; their conditions may differ.

Tests used:
[1] = tested on: airway epithelial cells; assay: Inhalational administration to subjects with COPD, video-microscopy of airway epithelial cells; type: in vivo, human; settings: approx. 1 mg/kg inhaled once per day for seven days
Description: Ten subjects are diagnosed with Chronic Obstructive Pulmonary Disease (COPD). Each subject provides informed consent regarding providing epithelial cell samples and to receiving a blinded treatment of either DAPT or a control placebo. […] The epithelial cells are placed into suitable medium such as Leibovitz-15 medium. Thereafter, cell samples are evaluated for percentage ciliation, cilia length, and/or cilia beat frequency by video-microscopy, and the results are recorded. Video-microscopy confirms each subject has epithelial cells which are reduced in cilia number, cilia length, and/or cilia beat frequency compared to averages or standards present in the medical literature.
DAPT is inhalationally administered to five of the subjects via a nebulizer or an inhaler (hereinafter, “DAPT-treated subjects”). […]
(§1) The epithelial cells are placed into suitable medium such as Leibovitz-15 medium. Thereafter, cell samples are evaluated for percentage ciliation, cilia length, and/or cilia beat frequency by video-microscopy, and the results are recorded. Video-microscopy confirms each of the five DAPT-treated subjects has epithelial cells which are increased in cilia number, cilia length, and/or cilia beat frequency as compared to both 1) the epithelial cells of placebo-treated subjects, and 2) the pre-treatment measurements recorded for epithelial cells of each respective DAPT-treated subject. […]

[2] = tested on: human nasal epithelial cells; assay: Ex vivo reciliation of human nasal epithelial cells in suspension culture (video-microscopy); type: cell-based; settings: 2 nM DAPT vs regular media
Description: Cells were immediately placed into 5 ml Leibovitz-15 medium prior to processing for stationary culture.
These cells were spun down, the supernatant was aspirated, cells were resuspended in 6 ml of stationary medium, and then plated onto 3 wells of a 6-well rat tail collagen coated plate. The media was changed 48-72 hours post plating and fed every 2 days until confluence was reached. Following confluence, the treatment of mouse tracheal epithelial cells and human nasal epithelial cells was identical e.g., placement into suspension culture, video microscopy, etc. siRNA knockdown was only performed in mouse tracheal tissue due to the paucity of human nasal epithelial cells.
Once confluence was reached, typically occurring between about 7 to 10 days, the stationary media was aspirated, and collagen was digested with 1 ml of Collagenase 4 (200 IU/ml, Worthington, LS004210) for 75-90 mins at 37° C./5% CO2. After incubation, collagenase was neutralized using 2 ml of Suspension media (500 ml DMEN/F12, 50 ml NuSerum, 10 ml 100× Antibiotics-Antimycotic). Cells adherent to the bottom of the plate were gently scrapped off with a cell scraper (Fisherbrand, 08-100-241). […]
Reciliation was observed by about days 7 to 9 with high-speed video-microscopy (200 fps) with a 60× oil-immersion lens (FIG. 2A). […] The outlined total surface and ciliated surface alone was quantified. Extent of ciliation was calculated by dividing the length of ciliated surface by the length of the entire surface available for ciliation, and converted to a percentage.
To measure cilia length in reciliated nasal tissue, each recording was processed with a custom script written for Fiji, an open-source image analysis software (Schindelin, et al., Nat. Methods, 2012, 9:676-682). This script used the Temporal Median filter to segment patches of cilia based on movement, and the Thickness tool in the BoneJ analysis toolkit (Doube, et al., Bone, 2010, 47:1076-1079) measured average cilia length. Ciliary beat frequency was measured in cilia beats per second (Hertz).] […]

[3] = tested on: mouse tracheal epithelial cells; assay: Ex vivo reciliation of mouse tracheal epithelial cells in suspension culture (video-microscopy); type: cell-based
Source text: All animal protocols were approved by the University of Pittsburgh Animal Care and Use Committee. Wild-type, C57B6, adult mice (6-8 weeks of age) were euthanized with inhalational CO2, anterior neck regions were washed with 70% ethanol, and a transverse incision was made across the neck at the mid-cervical level. […] The trachea was gently dissected from the underlying adherent esophagus and connective tissue, pulled out and transected proximally first from the larynx and then distally as far down as possible, close to the carina, and placed in a petri dish containing about 10 ml Leibovitz-15 solution (Gibco; 21083). Isolated tracheas were cleaned of adherent muscle tissue, blood vessels and fat under a dissecting microscope, then incised, splaying the trachea length-wise.
Twelve ml of Leibovitz-15 solution were placed in a 15 ml falcon tube, and 6 cleaned, incised tracheas were added to each tube. Pronase (Protease from Streptomyces griseus, Sigma, P5147) was added to a final concentration of 1.5 mg/ml (Stock solution, 150 mg/ml, 100×) and placed in 4° C. overnight with gentle shaking. After incubation, Pronase was neutralized with addition of fetal bovine serum to a final concentration of 10% (1.2 ml/tube). Tracheas and denuded epithelial cells were centrifuged at 1200 rpms for 6 minutes. Supernatant was aspirated, and trachea/cells were re-suspended in 12 ml Stationary media (500 ml DMEM/F12, 10 ml of Ultroser G, and 10 ml of 100× Antibiotics-Antimycotic). The cells/tracheas were pipetted up and down vigorously 12-20 times, and vortexed to re-suspend pelleted tracheas if necessary. Trachea/cells were centrifuged again, supernatants were aspirated, pellets were re-suspended in 6 ml of stationary medium, and then everything was transferred to a Primaria plate (Corning, 353803) or a regular cell culture plate (Corning, 353003), and incubated at 37° C./5% CO2 for 6 hours. This was performed to plate out fibroblasts, thereby minimizing contamination of tracheal epithelial cells with fibroblasts. After incubation, non-adherent cells were collected by lightly washing the plates with stationary media present in the plates. Cells were pelleted, supernatant aspirated, cells re-suspended in 12 ml of stationary medium and added to a 6-well plate (2 ml/well) coated with rat tail collagen.
Tracheal epithelial cells were obtained from mice and processed for stationary culture as detailed above. The tracheal epithelial cells were placed onto rat-tail collagen coated wells and then incubated at 37° C./5% CO2 for 36-48 hrs. Over the course of about 48 hours, the cells seeded onto the collagen lost their cilia and underwent proliferative growth, expanding in numbers. […]

[4] = tested on: Hes1, Hes5, Hey1, Notch1, Psen1, Hif1α, nNOS, iNOS, eNOS; assay: qPCR of gene expression in mouse tracheal epithelial cells during ciliogenesis; type: cell-based; settings: 2 nM DAPT vs untreated, varying time points in suspension culture, most prominently day 5
Description: FIGS. 7(A-I) are graphs showing quantitative […] (qPCR) of gene expression in mouse tracheal epithelial cells during ciliogenesis. Cells were grown to confluence in stationary culture, treated with collagenase, then placed into suspension culture having 0 nM or 2 nM DAPT, which marked the “baseline” time point. At the indicated times, qPCR experiments were performed to detect gene expression of Hes1 (FIG. 7A), Hes5 (FIG. 7B), Hey1 (FIG. 7C), Psen1 (FIG. 7D), Hif1α (FIG. 7E), Notch1 (FIG. 7F), nNOS (FIG. 7G), iNOS (FIG. 7H), and eNOS (FIG. 7I).
Indeed, expression of multiple genes such as Hes1, Hes5, Hey1, Notch1, Psen1, Hif1α, nNOS, iNOS, and eNOS was altered at varying time points during ciliogenesis in suspension culture containing 2 nM DAPT, as compared to untreated (no DAPT) controls (FIGS. 7A-[…]). […] This effect was most marked for the three isoforms of nitric oxide synthase (NOS).

[5] = tested on: ependymal cells; assay: Intrathecal administration to subjects with hydrocephalus, video-microscopy of ependymal cells; type: in vivo, human; settings: approx. 1 mg/kg intrathecal once
Description: Ten subjects are diagnosed with hydrocephalus. Each subject provides informed consent regarding providing epithelial cell samples and to receiving a blinded treatment of either DAPT or a control placebo. Intrathecal biopsy is used to obtain ependymal cells from the cerebrospinal fluid of each subject. The ependymal cells are placed into suitable medium such as Leibovitz-15 medium. Thereafter, cell samples are evaluated for percentage ciliation, cilia length, and/or cilia beat frequency by video-microscopy, and the results are recorded. Video-microscopy confirms each subject has ependymal cells which are reduced in cilia number, cilia length, and/or cilia beat frequency compared to averages or standards present in the medical literature. […]
as §1, with “On day eight post-injection, ependymal” for “The epithelial”, “obtained from the cerebrospinal fluid of each subject by intrathecal biopsy. […]” for “placed into suitable medium such as Leibovitz-15 medium.”, “ependymal” for “epithelial”

[6] = day eight, vs placebo and pre-treatment
[7] = 12 subjects with congenital heart defects
[8] = 2 nM DAPT vs untreated, 8 days suspension culture

C[C@H](NC(=O)Cc1cc(F)cc(F)c1)C(=O)N[C@H](C(=O)OC(C)(C)C)c1ccccc1 [DAPT, N—[N-(3,5-Difluorophenacetyl)-L-alanyl]-S-phenylglycine t-butyl ester]
cilia number, cilia length, and/or cilia beat frequency of epithelial cells [1, 6]: increased | symptoms of COPD (e.g., coughing) ([1]; some subjects): ameliorated | percentage reciliation (percent ciliation) ([2]; 12 paired samples from subjects with congenital heart defects): significantly greater; also recorded: significant increases | cilia beat frequency [2, 7]: significantly increased; also recorded: significant increases | cilia length [2, 7]: significantly increased; also recorded: significant increases | cilia beat frequency [3, 8]: significantly increased | cilia length [3, 8]: significantly increased | increased ciliogenesis over baseline (percent ciliation) ([3]; 2 nM DAPT, 8 days suspension culture): ~3 fold | toxicity to cells (cell death, very few if any ciliated cells) ([3]; 2 μM DAPT or more, DMSO volume constant): toxic to cells | expression of Hes1, Hes5, Hey1, Notch1, Psen1, Hif1α, nNOS, iNOS and eNOS [4]: altered | cilia number, cilia length, and/or cilia beat frequency of ependymal cells [5, 6]: increased | symptoms of hydrocephalus (e.g., headache) ([5]; some subjects): ameliorated
